Source: patent US20250230193A1, “CYCLIC COMPOUND HAVING SELECTIVE KRAS INHIBITORY EFFECT ON HRAS AND NRAS” (CHUGAI SEIYAKU KABUSHIKI KAISHA, priority 2022, published 2025)

How the values were obtained:
[1] = biological target: GDP-bound NRAS wild-type protein (Homo sapiens, UniProt P01111); test: Binding to NRAS by surface plasmon resonance (SPR), Single Cycle Kinetics
[2] = biological target: GDP-bound HRAS wild-type protein (Homo sapiens, UniProt P01112); test: Binding to HRAS by surface plasmon resonance (SPR), Single Cycle Kinetics
Sequence of GDP-bound HRAS wild-type protein (P01112 whole entry): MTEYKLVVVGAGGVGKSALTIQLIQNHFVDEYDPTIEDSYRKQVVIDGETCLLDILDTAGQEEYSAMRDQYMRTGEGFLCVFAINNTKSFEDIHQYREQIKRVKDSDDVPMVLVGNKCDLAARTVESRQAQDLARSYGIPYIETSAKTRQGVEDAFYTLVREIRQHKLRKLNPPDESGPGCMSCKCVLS

Sequence of GDP-bound NRAS wild-type protein (P01111 whole entry): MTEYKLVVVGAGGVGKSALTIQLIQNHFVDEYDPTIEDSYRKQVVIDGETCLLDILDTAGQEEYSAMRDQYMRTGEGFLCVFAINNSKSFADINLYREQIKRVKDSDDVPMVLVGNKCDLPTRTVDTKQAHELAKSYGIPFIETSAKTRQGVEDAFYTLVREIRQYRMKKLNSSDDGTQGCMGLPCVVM

## CC[C@H](C)[C@@H]1NC(=O)[C@H](CC(C)C)N(C)C(=O)C[C@@H](C(=O)N2CCOCC2)N(C)C(=O)[C@H](C2CCCC2)N(C)C(=O)C2(CCCC2)NC(=O)[C@@H]2CCCN2C(=O)[C@H](CCc2cc(F)c(C(F)(F)F)c(F)c2)NC(=O)CN(C)C(=O)[C@H](Cc2ccc(C(F)(F)F)cc2)N2CCCCC[C@@H](C2=O)N(C)C(=O)CN(C)C1=O [PP0490]
[1]; SPR
  NRAS/KRAS (ratio of KD value with respect to GDP-bound NRAS wild-type protein to KD value with respect to KRAS): B (a compound having 3 or more and less than 10 is denoted as B)
[2]; SPR
  HRAS/KRAS (ratio of KD value with respect to GDP-bound HRAS wild-type protein to KD value with respect to KRAS): B (a compound having 3 or more and less than 10 is denoted as B)

## CCC(CC)[C@H]1C(=O)N(C)[C@H](C(=O)N(C)C)CC(=O)N(C)[C@@H](COC)C(=O)N[C@@H]([C@@H](C)CC)C(=O)N(C)CC(=O)N(C)[C@H]2C/C=C\CCN(C2=O)[C@@H](Cc2ccc(C)cc2)C(=O)N(C)CC(=O)N[C@@H](CCc2ccc(C(F)(F)F)c(OC)c2)C(=O)N2CCOC[C@H]2C(=O)NC2(CC(C)(C)C2)C(=O)N1C [PP2938]
[1]; class symbols
  NRAS/KRAS (ratio of KD value with respect to GDP-bound NRAS wild-type protein to KD value with respect to KRAS): AA (a compound having 20 or more is denoted as AA)
[2]; class symbols
  HRAS/KRAS (ratio of KD value with respect to GDP-bound HRAS wild-type protein to KD value with respect to KRAS): A (a compound having 10 or more and less than 20 is denoted as A)

## CCCN1C(=O)C[C@@H](C(=O)N(C)C)N(C)C(=O)[C@H](C2CCCC2)N(C)C(=O)C2(CCC2)NC(=O)[C@@H]2C[C@@H](OCC)CN2C(=O)[C@H](CCc2cc(F)c(C(F)(F)F)c(F)c2)NC(=O)CN(C)C(=O)[C@H](Cc2ccc(C(F)(F)F)cc2)N2CC/C=C\C[C@@H](C2=O)N(C)C(=O)CNC(=O)[C@H]([C@@H](C)CC)NC(=O)[C@@H]1CC(C)C [PP1826]
[1]; KD ratio, GDP-bound NRAS wild-type vs GDP-bound KRAS wild-type, SPR
  NRAS/KRAS (ratio of KD value for NRAS to KD value for KRAS): A (a compound having 10 or more and less than 20 is denoted as A)
[2]; KD ratio, GDP-bound HRAS wild-type vs GDP-bound KRAS wild-type, SPR
  HRAS/KRAS (ratio of KD value for HRAS to KD value for KRAS): A (a compound having 10 or more and less than 20 is denoted as A)

## CC[C@H](C)[C@@H]1NC(=O)[C@H](CC)N(C)C(=O)C[C@@H](C(=O)N(C)C)N(C)C(=O)[C@H](C2CCCC2)N(C)C(=O)C2(CCC2)NC(=O)[C@@H]2C[C@@H](N3CCC(F)(F)CC3)CN2C(=O)[C@H](CCc2cc(F)c(C(F)(F)F)c(F)c2)NC(=O)CN(C)C(=O)[C@H](Cc2ccc(C(F)(F)F)cc2)N2CCCC[C@@H](C2=O)N(C)C(=O)CN(C)C1=O [PP0656]
[1]; SPR
  NRAS/KRAS (ratio of KD value with respect to GDP-bound NRAS wild-type protein to KD value with respect to KRAS): C (A compound having a KD ratio of 0.1 or more and less than 3 is denoted as C)
[2]; SPR
  HRAS/KRAS (ratio of KD value with respect to GDP-bound HRAS wild-type protein to KD value with respect to KRAS): C (A compound having a KD ratio of 0.1 or more and less than 3 is denoted as C)

## CC[C@H](C)[C@@H]1NC(=O)[C@H](CC(C)C)N(C)C(=O)C[C@@H](C(=O)N2CCOCC2)N(C)C(=O)[C@H](C2CCCC2)N(C)C(=O)C2(CCCC2)NC(=O)[C@@H]2CCCN2C(=O)[C@H](CCc2ccc(C(F)(F)F)c(Cl)c2)NC(=O)CN(C)C(=O)[C@H](Cc2ccc(F)cc2)N2C/C=C\CC[C@@H](C2=O)N(C)C(=O)CN(C)C1=O [PP0607]
[1]; SPR
  NRAS/KRAS (ratio of KD value with respect to GDP-bound NRAS wild-type protein to KD value with respect to KRAS): C (A compound having a KD ratio of 0.1 or more and less than 3 is denoted as C)
[2]; SPR
  HRAS/KRAS (ratio of KD value with respect to GDP-bound HRAS wild-type protein to KD value with respect to KRAS): B (a compound having 3 or more and less than 10 is denoted as B)

## CC[C@H](C)[C@@H]1NC(=O)[C@H](CC)N(C)C(=O)C[C@@H](C(=O)N(C)C)N(C)C(=O)[C@H](C2CCCC2)N(C)C(=O)C2(CCC2)NC(=O)[C@@H]2CCN2C(=O)[C@H](CCc2cc(F)c(C(F)(F)F)c(F)c2)NC(=O)CN(C)C(=O)[C@H](Cc2ccc(C(F)(F)F)cc2)N2CCCC[C@@H](C2=O)N(C)C(=O)CN(C)C1=O [PP0657]
[1]; SPR
  NRAS/KRAS (ratio of KD value with respect to GDP-bound NRAS wild-type protein to KD value with respect to KRAS): B (a compound having 3 or more and less than 10 is denoted as B)
[2]; SPR
  HRAS/KRAS (ratio of KD value with respect to GDP-bound HRAS wild-type protein to KD value with respect to KRAS): B (a compound having 3 or more and less than 10 is denoted as B)

## C#CC[C@H]1C(=O)N[C@@H]([C@@H](C)CC)C(=O)N(C)CC(=O)N(C)[C@H]2C/C=C\CCN(C2=O)[C@@H](Cc2ccc(C(F)(F)F)cc2)C(=O)N(C)CC(=O)N[C@@H](CCc2cc(F)c(C(F)(F)F)c(F)c2)C(=O)N2C[C@@H](C)C[C@H]2C(=O)NC2(CCC2)C(=O)N(C)[C@@H](C2CCCC2)C(=O)N(C)[C@H](C(=O)N(C)CCC)CC(=O)N1C [PP2077]
[1]; SPR, GDP-bound NRAS wild-type vs GDP-bound KRAS wild-type
  NRAS/KRAS (ratio of KD value with respect to NRAS to KD value with respect to KRAS): A (a compound having 10 or more and less than 20 is denoted as A)
[2]; SPR, GDP-bound HRAS wild-type vs GDP-bound KRAS wild-type
  HRAS/KRAS (ratio of KD value with respect to HRAS to KD value with respect to KRAS): A (a compound having 10 or more and less than 20 is denoted as A)
